We go through 20 compounds from US9938301B2, “Dihydropyrimido fused ring derivative as HBV inhibitor” (QILU PHARMACEUTICAL CO., LTD., priority 2014, dated 2018).

Some results are limits rather than exact numbers.

One test concerns HBV DNA in HepG2.2.15 cells. Kind of test: HBV in vitro assay quantitive qPCR test. In kind it is cell-based. The settings on record: Hepatitis B virus; qPCR assay, HepG2.2.15 cells; read-out: Concentration for 50% inhibition of HBV (EC50)value. The procedure: • 1 Purpose of the test: • The content of HBV DNA in HepG2.2.15 cells was detected by real time quantitive qPCR test to evaluate an inhibitory action of the compound on HBV with an EC50 value of the compound as an indicator. • 2 Experimental materials: • 2.1 Cell lines: HepG2.2.15 Cells • HepG2.2.15 cell culture media (DMEM/F12, Invitrogen-11330057; 10% serum, Invitrogen-10099141; 100 units/ml Penicillin and 10 μg/ml Streptomycin, Invitrogen-15140122; 1% non-essential amino acid, Invitrogen-1140076; 2 mM L-GLUTAMINE, Invitrogen-25030081; 300 μg/ml Geneticin, Invitrogen-10131027 • 2.2 Reagents: • trypsin (Invitrogen-25300062) • DPBS (Hyclone-SH30028.01B) • DMSO (Sigma-D2650-100ML) • High-Throughput DNA Purification Kit (QIAamp 96 DNA Blood Kit, Qiagen-51162) • Quantitative Fast Start Universal Probe Reagent (FastStart Universal Probe Master, Roche-04914058001) • 2.3 Materials and Instruments: • 96-well cell culture plate (Corning-3599) • CO2 Incubator (HERA-CELL-240) • Optical Sealing Membrane (ABI-4311971) • Quantitative PCR 96-well Plate (Applied Biosystems-4306737) • Fluorescent Quantitative PCR Instrument (Applied Biosystems-7500 real time PCR system) • 3. Testing steps and Methods: • 3.1 HepG2.2.15 cells (4×10^4 cells/well) were planted into a 96-well plate, and at 37° C., 5% CO2 cultured overnight. • 3.2 On Day 2, the compounds were diluted in totally 8 concentrations with a dilution gradient of three times. The compounds at different concentrations were added into the culture wells in duplicate. The final concentration of DMSO in the culture media was 1%. 1 μM GLS4 was used as 100% inhibition control; 1% DMSO as 0% inhibition control. • 3.3 On Day 5, replacing with the fresh culture media containing the compound was performed. • 3.4 On Day 8, the culture media in the culture wells was collected, and DNA was extracted with a High-Throughput DNA Purification Kit (Qiagen-51162), See Specification of the product for specific steps. • 3.5 Preparation of PCR Reaction Mixture was shown in Table 1:
• 3.6 To each well of a 96-well PCR plate was added 15 μl reaction mixture, and then to each well was added 10 μl sample DNA or HBV DNA standard. • 3.7 The reaction conditions of PCR were: heating at 95° C. for 10 minutes; then at 95° C. denaturing for 15 seconds, and at 60° C. extending for 1 minute, totally 40 cycles. • 3.8 Data Analysis: • 3.8.1 The inhibition percentage was calculated: % Inh.=[1−(DNA copy number in sample−DNA copy number in 1 μM GLS4)/(DNA copy number in DMSO control−DNA copy number in 1 μM GLS4)]×100. • 3.8.2 Calculating EC50: the concentration of the compound for 50% inhibition of HBV (EC50) was calculated by using GraphPad Prism Software. • 4 Testing Results • The testing results were shown in Table 3: […]
For orientation: Quantitative PCR measures a nucleic acid by following its amplification.
`COC(=O)C1=C2C[C@H](NS(=O)(=O)c3ccccn3)CN2C(c2nccs2)=N[C@H]1c1ccc(F)cc1Cl` [Example 200]: the EC50 is less than 100 nM.
The same measure, in the same setting: the same measure for `COC(=O)C1=C2C[C@H](NS(C)(=O)=O)CN2C(c2nccs2)=N[C@H]1c1ccc(F)c(F)c1Cl` [Example 201]: less than 100 nM; for `COC(=O)C1=C2C[C@H](NS(C)(=O)=O)CN2C(c2ncc(C)s2)=N[C@H]1c1ccc(F)cc1Cl` [Example 202]: 100 to 500 nM.
Same read-out and setting: the same measure for `COC(=O)C1=C2C[C@H](NS(C)(=O)=O)CN2C(c2nccs2)=N[C@H]1c1ccc(F)cc1C(F)(F)F` [Example 203]: 100 to 500 nM.
Still for that read-out and setting: in the case of `COC(=O)C1=C2C[C@H](NS(=O)(=O)c3ccccc3F)CN2C(c2nccs2)=N[C@H]1c1ccc(F)cc1Cl` [Example 204] it was less than 100 nM; in that of `COC(=O)C1=C2C[C@H](NS(C)(=O)=O)CN2C(c2nccs2)=N[C@H]1c1ccc(F)cc1F` [Example 205], less than 100 nM.
As for `CNS(=O)(=O)N[C@H]1CC2=C(C(=O)OC)[C@H](c3ccc(F)c(F)c3F)N=C(c3nccs3)N2C1` [Example 206], the EC50 is less than 100 nM.
The same measure, in the same setting: the same measure for `COC(=O)C1=C2C[C@H](NS(=O)(=O)N(C)C)CN2C(c2nccs2)=N[C@H]1c1ccc(F)c(F)c1F` [Example 207]: less than 100 nM; for `COC(=O)C1=C2C[C@H](NS(=O)(=O)N3CCCC3)CN2C(c2nccs2)=N[C@H]1c1ccc(F)c(F)c1F` [Example 208]: less than 100 nM.
As for `COC(=O)C1=C2C[C@H](NS(=O)(=O)NC(C)C)CN2C(c2nccs2)=N[C@H]1c1ccc(F)c(F)c1F` [Example 209], the EC50 was less than 100 nM.
Regarding `COC(=O)C1=C2C[C@H](NS(=O)(=O)NC(C)(C)C)CN2C(c2nccs2)=N[C@H]1c1ccc(F)c(F)c1F` [Example 210], the EC50 was less than 100 nM.
On the same count and under the same terms, the same measure for `COC(=O)C1=C2C[C@H](NS(=O)(=O)N3CCC3)CN2C(c2nccs2)=N[C@H]1c1ccc(F)c(F)c1F` [Example 212]: 100 to 500 nM; for `CCS(=O)(=O)N[C@H]1CC2=C(C(=O)OC)[C@H](c3cccc(F)c3Cl)N=C(c3nccs3)N2C1` [Example 213]: less than 100 nM.
The same measure, in the same setting: the same measure for `CCCCNS(=O)(=O)N[C@H]1CC2=C(C(=O)OC)[C@H](c3ccc(F)c(F)c3F)N=C(c3nccs3)N2C1` [Example 214]: less than 100 nM; for `COC(=O)C1=C2C[C@H](NS(=O)(=O)N(C)C)CN2C(c2nccs2)=N[C@H]1c1cccc(F)c1Cl` [Example 215]: less than 100 nM; for `COC(=O)C1=C2C[C@H](NS(=O)(=O)NC(C)C)CN2C(c2nccs2)=N[C@H]1c1cccc(F)c1Cl` [Example 216]: less than 100 nM.
On the same count and under the same terms, the same measure for `COC(=O)C1=C2C[C@H](NC(=O)OC(C)(C)C)CN2C(c2nccs2)=N[C@H]1c1cccc(F)c1Cl` [Example 217]: less than 100 nM.
As for `COC(=O)C1=C2C[C@H](NS(N)(=O)=O)CN2C(c2nccs2)=N[C@H]1c1cccc(F)c1Cl` [Example 218], the EC50 is less than 100 nM.
Same read-out and setting: in the case of `COC(=O)C1=C2C[C@H](NS(N)(=O)=O)CN2C(c2ncc(F)cc2F)=N[C@H]1c1ccc(F)c(F)c1F` [Example 219] it was 100 to 500 nM; in that of `COC(=O)C1=C2C[C@H](NS(N)(=O)=O)CN2C(c2nccs2)=N[C@H]1c1cccc(F)c1F` [Example 220], less than 100 nM.

The same test, now with this note: Hepatitis B virus; summary list of target compounds, Examples 166-220 (values of Table 3); HepG2.2.15 cells; read-out: BIOACTIVITY (inhibitory actions on HBV DNA, EC50).
For the compound `COC(=O)C1=C2C[C@H](NS(=O)(=O)c3ccccn3)CN2C(c2nccs2)=N[C@H]1c1ccc(F)cc1Cl` [Example 200], the EC50 was less than 100 nM.
Consider `COC(=O)C1=C2C[C@H](NS(C)(=O)=O)CN2C(c2nccs2)=N[C@H]1c1ccc(F)c(F)c1Cl` [Example 201], for which the EC50 was less than 100 nM.
Same read-out and setting: the same measure for `COC(=O)C1=C2C[C@H](NS(C)(=O)=O)CN2C(c2ncc(C)s2)=N[C@H]1c1ccc(F)cc1Cl` [Example 202]: 100 to 500 nM; for `COC(=O)C1=C2C[C@H](NS(C)(=O)=O)CN2C(c2nccs2)=N[C@H]1c1ccc(F)cc1C(F)(F)F` [Example 203]: 100 to 500 nM.
Same read-out and setting: the same measure for `COC(=O)C1=C2C[C@H](NS(=O)(=O)c3ccccc3F)CN2C(c2nccs2)=N[C@H]1c1ccc(F)cc1Cl` [Example 204]: less than 100 nM; for `COC(=O)C1=C2C[C@H](NS(C)(=O)=O)CN2C(c2nccs2)=N[C@H]1c1ccc(F)cc1F` [Example 205]: less than 100 nM; for `CNS(=O)(=O)N[C@H]1CC2=C(C(=O)OC)[C@H](c3ccc(F)c(F)c3F)N=C(c3nccs3)N2C1` [Example 206]: less than 100 nM.
Same read-out and setting: in the case of `COC(=O)C1=C2C[C@H](NS(=O)(=O)N(C)C)CN2C(c2nccs2)=N[C@H]1c1ccc(F)c(F)c1F` [Example 207] it was less than 100 nM; in that of `COC(=O)C1=C2C[C@H](NS(=O)(=O)N3CCCC3)CN2C(c2nccs2)=N[C@H]1c1ccc(F)c(F)c1F` [Example 208], less than 100 nM.
Turning to `COC(=O)C1=C2C[C@H](NS(=O)(=O)NC(C)C)CN2C(c2nccs2)=N[C@H]1c1ccc(F)c(F)c1F` [Example 209], the EC50 was less than 100 nM.
Still for that read-out and setting: the same measure for `COC(=O)C1=C2C[C@H](NS(=O)(=O)NC(C)(C)C)CN2C(c2nccs2)=N[C@H]1c1ccc(F)c(F)c1F` [Example 210]: less than 100 nM; for `COC(=O)C1=C2C[C@H](NS(=O)(=O)N3CCC3)CN2C(c2nccs2)=N[C@H]1c1ccc(F)c(F)c1F` [Example 212]: 100 to 500 nM; for `CCS(=O)(=O)N[C@H]1CC2=C(C(=O)OC)[C@H](c3cccc(F)c3Cl)N=C(c3nccs3)N2C1` [Example 213]: less than 100 nM.
With `CCCCNS(=O)(=O)N[C@H]1CC2=C(C(=O)OC)[C@H](c3ccc(F)c(F)c3F)N=C(c3nccs3)N2C1` [Example 214], the EC50 was less than 100 nM.
On the same count and under the same terms, in the case of `COC(=O)C1=C2C[C@H](NS(=O)(=O)N(C)C)CN2C(c2nccs2)=N[C@H]1c1cccc(F)c1Cl` [Example 215] it was less than 100 nM.
On the same count and under the same terms, in the case of `COC(=O)C1=C2C[C@H](NS(=O)(=O)NC(C)C)CN2C(c2nccs2)=N[C@H]1c1cccc(F)c1Cl` [Example 216] it was less than 100 nM; in that of `COC(=O)C1=C2C[C@H](NC(=O)OC(C)(C)C)CN2C(c2nccs2)=N[C@H]1c1cccc(F)c1Cl` [Example 217], 1000 to 5000 nM; in that of `COC(=O)C1=C2C[C@H](NS(N)(=O)=O)CN2C(c2nccs2)=N[C@H]1c1cccc(F)c1Cl` [Example 218], less than 100 nM.
On the same count and under the same terms, the same measure for `COC(=O)C1=C2C[C@H](NS(N)(=O)=O)CN2C(c2ncc(F)cc2F)=N[C@H]1c1ccc(F)c(F)c1F` [Example 219]: 100 to 500 nM; for `COC(=O)C1=C2C[C@H](NS(N)(=O)=O)CN2C(c2nccs2)=N[C@H]1c1cccc(F)c1F` [Example 220]: less than 100 nM.
